Assay results published in patent publication US6656907B1, “Method of treating gastric ulcer by administration of epidermal growth factor” (University Technologies International Inc., priority 1995, dated 2003).

Tested on: intestinal brush border membrane nutrient absorption
Assay: Nutrient uptake into brush border membrane vesicles after jejunal loop treatment
Assay type: in vivo, New Zealand White rabbits
Experimental: Subsequent experiments examined the effects of EGF and an inhibitor of the EGF receptor (tyrphostin 51) on intestinal brush border membrane nutrient absorption. Tyrphostin 51is a specific inhibitor of tyrosine kinase, which is a critical element of the EGF intracellular signalling cascade. Studies were performed in New Zealand White rabbits (700-1000 g; approximately 8 weeks of age). Two 10 cm blind jejunal loops separated by a 1 cm segment were tied off starting 5 cm distal to the ligament of Treitz. In separate experiments either EGF (60 ng/ml), EGF+tyrphostin (10 μM), or tyrphostin (10 μM) alone in 1.5 ml of saline vehicle was administered to one of the loops. The other loop received vehicle alone and served as a paired control. After one hour, the loops were removed and the mucosa scraped for preparation of brush border membrane vesicles. Nutrient (D-glucose and L-proline) uptake into brush border membrane vesicles was determined by established techniques. Luminal EGF stimulated a significant increase (p<0.001) in brush border membrane glucose (EGF 16.1±1.0 vs CONTROL 11.5±0.9 nmol/min/mg protein; n=5) and proline (EGF 3.8±0.5 vs CONTROL 2.6±0.3 nmol/min/mg protein; n=5) transport compared to controls. […] Subsequently, a further series of experiments examined the effect of tyrphostin alone on brush border glucose transport. […]

Compound: N#CC(C#N)=C(N)/C(C#N)=C/c1cc(O)c(O)c(O)c1 [TYR, tyrphostin 51, reference compound]
- effect on EGF-induced increase in glucose uptake (concurrent tyrphostin 10 μM with EGF 60 ng/ml): completely blocked
- brush border membrane glucose uptake (tyrphostin 10 μM alone, one hour, n=4, control 10.7±1.0): 8.0±0.8 nmol/min/mg protein
